Laboratory results: the supplement of paper PMC10307832

Experiments:
Test in all cases: relative viability (nuclei count vs DMSO), 5 days (fraction); higher = more cells survive
Gemcitabine = compound: Nc1ccn([C@@H]2O[C@H](CO)[C@@H](O)C2(F)F)c(=O)n1 [Gemcitabine]
In short: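 Viability was read as treated-well nuclei divided by vehicle-well nuclei, using the median across plates. Lung cancer cell lines in 1536-well plates were kept overnight at 37 °C, pinned with five √10-spaced library-drug doses, and after 5 days were Hoechst-stained, imaged at 4× and counted in MetaXpress. Plates passed only with control CV below 25% and at least one doubling.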

Gemcitabine + Trametinib = compound: Nc1ccn([C@@H]2O[C@H](CO)[C@@H](O)C2(F)F)c(=O)n1 [Gemcitabine] + CC(=O)Nc1cccc(-n2c(=O)n(C3CC3)c(=O)c3c(Nc4ccc(I)cc4F)n(C)c(=O)c(C)c32)c1 [Trametinib] (partner 0.02 µM)
In short: (§1)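 Each reported value is a median over duplicate plates. It expresses relative viability: treated-well nuclei count divided by vehicle-well nuclei count. Lung cancer cell lines in 1536-well plates were dosed by pin tool a day after seeding, alone with one drug or with a fixed anchor-drug dose plus five library-drug doses (not always all listed) in √10 steps, and nuclei were counted after 5 days.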

Gemcitabine + Tozasertib = compound: Nc1ccn([C@@H]2O[C@H](CO)[C@@H](O)C2(F)F)c(=O)n1 [Gemcitabine] + Cc1cc(Nc2cc(N3CCN(C)CC3)nc(Sc3ccc(NC(=O)C4CC4)cc3)n2)n[nH]1 [Tozasertib] (partner 0.1 µM)
In short: as §1

Gemcitabine + AZD7762 = compound: Nc1ccn([C@@H]2O[C@H](CO)[C@@H](O)C2(F)F)c(=O)n1 [Gemcitabine] + NC(=O)Nc1cc(-c2cccc(F)c2)sc1C(=O)N[C@H]1CCCNC1 [AZD7762] (partner 0.2 µM)
In short: as §1

Cell Line	relative viability (Gemcitabine; 0.001 µM)	relative viability (Gemcitabine; 0.003162 µM)	relative viability (Gemcitabine; 0.01 µM)	relative viability (Gemcitabine; 0.03162 µM)	relative viability (Gemcitabine; 0.1 µM)	relative viability (Gemcitabine + Trametinib; first compound 0.001 µM)	relative viability (Gemcitabine + Trametinib; first compound 0.003162 µM)	relative viability (Gemcitabine + Trametinib; first compound 0.01 µM)	relative viability (Gemcitabine + Trametinib; first compound 0.03162 µM)	relative viability (Gemcitabine + Trametinib; first compound 0.1 µM)	relative viability (Gemcitabine + Tozasertib; first compound 0.001 µM)	relative viability (Gemcitabine + Tozasertib; first compound 0.003162 µM)	relative viability (Gemcitabine + Tozasertib; first compound 0.01 µM)	relative viability (Gemcitabine + Tozasertib; first compound 0.03162 µM)	relative viability (Gemcitabine + Tozasertib; first compound 0.1 µM)	relative viability (Gemcitabine + AZD7762; first compound 0.001 µM)	relative viability (Gemcitabine + AZD7762; first compound 0.003162 µM)	relative viability (Gemcitabine + AZD7762; first compound 0.01 µM)	relative viability (Gemcitabine + AZD7762; first compound 0.03162 µM)	relative viability (Gemcitabine + AZD7762; first compound 0.1 µM)
LXF-289	1.01	0.977	0.826	0.206	0.123	0.644	0.683	0.611	0.205	0.147	0.254	0.199	0.111	0.0735	0.0697	1.1	0.767	0.0873	0.0797	0.088
HCC-44	0.99	0.815	0.935	0.527	0.264	1.11	1.02	1.02	0.895	0.42	1.05	0.918	0.774	0.194	0.162	0.971	1.03	0.942	0.226	0.271
PC-14	0.97	0.407	0.151	0.0526	0.0522	0.885	0.279	0.037	0.0374	0.0267	0.579	0.275	0.078	0.0297	0.0356	0.269	0.0798	0.0434	0.0466	0.0618
HOP-62	0.923	0.855	0.176	0.103	0.0838	0.366	0.405	0.24	0.122	0.0817	0.392	0.285	0.0943	0.0841	0.0623	0.287	0.08	0.0514	0.0757	0.0617
NCI-H358	0.972	0.415	0.179	0.154	0.157	0.11	0.107	0.0776	0.0818	0.0722	0.086	0.081	0.0836	0.081	0.0743	0.201	0.245	0.16	0.23	0.126
NCI-H1666	0.965	1	0.909	0.61	0.412	0.795	0.946	0.773	0.655	0.554	0.622	0.615	0.582	0.387	0.337	0.866	0.699	0.582	0.332	0.368
NCI-H1355	0.987	0.818	0.392	0.187	0.152	0.426	0.363	0.245	0.189	0.154	0.508	0.393	0.189	0.18	0.169	0.434	0.196	0.112	0.163	0.132
HCC-827	1.05	0.928	0.783	0.51	0.252	0.537	0.247	0.316	0.184	0.156	0.402	0.392	0.303	0.191	0.169	0.128	0.12	0.107	0.11	0.133
HARA	1.03	0.984	0.971	0.469	0.118	0.592	0.635	0.797	0.143	0.107	0.12	0.103	0.095	0.0811	0.042	0.328	0.241	0.131	0.132	0.117
HCC-366	0.992	0.939	0.535	0.0641	0.0314	0.284	0.392	0.0497	0.0318	0.0203	0.14	0.105	0.0801	0.0228	0.0235	0.27	0.16	0.0204	0.0203	0.0152
NCI-H322M	0.813	0.375	0.295	0.281	0.304	0.47	0.327	0.394	0.382	0.385	0.459	0.407	0.288	0.316	0.283	0.458	0.382	0.356	0.423	0.419
NCI-H2347	1	0.915	0.68	0.492	0.381	0.305	0.255	0.276	0.258	0.2	0.563	0.547	0.484	0.29	0.259	0.494	0.468	0.205	0.217	0.233
NCI-H1975	0.984	1.1	0.648	0.216	0.174	0.305	0.447	0.367	0.124	0.135	0.892	0.561	0.256	0.132	0.0954	0.699	0.353	0.19	0.247	0.204
NCI-H2342	0.922	0.972	0.777	0.438	0.305	0.862	0.904	0.561	0.545	0.311	0.456	0.451	0.427	0.279	0.268	0.473	0.382	0.333	0.235	0.374
A-427	0.96	0.867	0.584	0.293	0.143	0.704	0.799	0.521	0.356	0.223	0.189	0.19	0.135	0.13	0.121	0.472	0.302	0.174	0.188	0.146
LCLC-97TM1	0.909	0.455	0.139	0.0859	0.0792	0.169	0.143	0.12	0.126	0.0828	0.253	0.244	0.156	0.123	0.134	0.105	0.0523	0.0434	0.0523	0.0703
